Literature values, collected in patent publication US8404891B2, “Storage-stable formulation of paracetamol in aqueous solution” (Neogen N.V., priority 2009, dated 2013).

Conditions: aqueous solution; K. T. Koshy et al., 1961

Compound: CC(=O)Nc1ccc(O)cc1 [paracetamol, N-(4-hydroxy-phenyl)acetamide]
- pH at which rate of degradation is minimal: ~6
